The supplement of paper PMC11208160

assay: recombinant barcode read abundance after kanamycin selection (control-corrected) (log10(CPM+1)); higher = more efficient recombination; sequences stand for … in AGTGCAGAGAAAATCGGCCAGTTTTCTCTGCCTGCAGTCCGCATGCCGT…AGATTTATGCAGCGGACTGCCTTTCTCCCAAAGTGATAAACCGGACAGTATCATGGACCGGTTTTCCCGGTAATCCGTATTTGCAAGGTTGGTTTCACT; site = the 11-nt target
In short: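 The screen was pooled in E. coli and paired targets with IS621 bridge RNA target-binding loops. Recombination efficiency is taken from barcode counts per million at recombinant junctions, averaged and adjusted against the control. Values, in the form log10(CPM+1), come from duplicate plating on chloramphenicol/ampicillin LB agar or on chloramphenicol/ampicillin/kanamycin with 0.1 mM IPTG.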
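Note: IS621 recombinase and bridge RNA in Escherichia coli cells.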

Point of comparison: “TAGAGCCCTTGGGTTCTAACCTGTTGCGG (site TAGAGCCCTCC)”, “recombinant barcode read abundance (log10)” value 0.953. Against it:
- TACTAAGCTTGGGTTCTAACCTGTTGCAT (site TACTAAGCTAT) — lower, 0.523
- TACTAAGCTTGGGTTCTAACCTGTTGCGT (site TACTAAGCTAA) — lower, 0.238
- TACTAAGCTTGGGTTCTAACCTGTTGCGT (site TACTAAGCTAC) — within 0.2 log units, 1.1
- TACTAAGCTTGGGTTCTAACCTGTTGCGT (site TACTAAGCTAG) — lower, 0.122
- TACTAAGCTTGGGTTCTAACCTGTTGCGT (site TACTAAGCTAT) — lower, 0.149
- TACTCAACTTGGGTTCTAACCTGTTGCCT (site TACTAAACTAG) — lower, 0.376
- TACTCAACTTGGGTTCTAACCTGTTGCCT (site TACTCAACTAG) — lower, 0.0463
- TACTCAACTTGGGTTCTAACCTGTTGCCT (site TACTGAACTAG) — lower, 0.0105
- TACTCAACTTGGGTTCTAACCTGTTGCCT (site TACTTAACTAG) — lower, 0
- TACTCACCTTGGGTTCTAACCTGTTGCTT (site ACTGGTTCTCG) — lower, 0.022
- TACTCACCTTGGGTTCTAACCTGTTGCTT (site TACTCACCTAA) — lower, 0.287
- TACTGATCTTGGGTTCTAACCTGTTGCCT (site TAATGATCTAG) — lower, 0.0666
- TACTGATCTTGGGTTCTAACCTGTTGCCT (site TACTGATCTAG) — lower, 0.461
- TACTGATCTTGGGTTCTAACCTGTTGCCT (site TAGTGATCTAG) — lower, 0.0404
- TACTGATCTTGGGTTCTAACCTGTTGCCT (site TATTGATCTAG) — lower, 0.0711
- TACTTCGCTTGGGTTCTAACCTGTTGCCT (site CACATCGCTAG) — lower, 0.042
- TACTTCGCTTGGGTTCTAACCTGTTGCCT (site TACTTCGCTAG) — lower, 0.193
- TAGAAAGCTTGGGTTCTAACCTGTTGCCA (site TAGAAAGCTTG) — lower, 0.633
- TAGAAAGCTTGGGTTCTAACCTGTTGCCA (site TAGGAAGCTTC) — lower, 0.139
- TAGAACACTTGGGTTCTAACCTGTTGCTC (site TAGAACACTAA) — lower, 0.421
- TAGAACACTTGGGTTCTAACCTGTTGCTC (site TAGAACACTCA) — lower, 0.151
- TAGAACACTTGGGTTCTAACCTGTTGCTC (site TAGAACACTGA) — lower, 0.262
- TAGAACACTTGGGTTCTAACCTGTTGCTC (site TAGAACACTTA) — lower, 0.0884
- TAGAACACTTGGGTTCTAACCTGTTGCTT (site TAGAACACTAA) — lower, 0.16
- TAGAACACTTGGGTTCTAACCTGTTGCTT (site TAGAACACTCA) — lower, 0.0447
- TAGAACACTTGGGTTCTAACCTGTTGCTT (site TAGAACACTGA) — lower, 0.153
- TAGAACACTTGGGTTCTAACCTGTTGCTT (site TAGAACACTTA) — lower, 0.169
- TAGAAGACTTGGGTTCTAACCTGTTGCAT (site TAGAAGACTAT) — within 0.2 log units, 1.01
- TAGAAGACTTGGGTTCTAACCTGTTGCAT (site TATAAGACTGT) — lower, 0.0979
- TAGAAGCCTTGGGTTCTAACCTGTTGCCT (site AAGAAGCCTAG) — lower, 0.248
- TAGAAGCCTTGGGTTCTAACCTGTTGCCT (site CAGAAGCCTAG) — lower, 0.43
- TAGAAGCCTTGGGTTCTAACCTGTTGCCT (site GAGAAGCCTAG) — lower, 0.06
- TAGAAGCCTTGGGTTCTAACCTGTTGCCT (site TAGAAGCCTAG) — within 0.2 log units, 1.11
- TAGAAGGCTTGGGTTCTAACCTGTTGCCT (site TAGAAGGCTAA) — lower, 0.139
- TAGAAGGCTTGGGTTCTAACCTGTTGCCT (site TAGAAGGCTAC) — lower, 0.1
- TAGAAGGCTTGGGTTCTAACCTGTTGCCT (site TAGAAGGCTAG) — lower, 0.216
- TAGAAGGCTTGGGTTCTAACCTGTTGCCT (site TAGAAGGCTAT) — lower, 0.325
- TAGAAGGCTTGGGTTCTAACCTGTTGCTT (site TAGAAGGCTAA) — within 0.2 log units, 0.805
- TAGAAGGCTTGGGTTCTAACCTGTTGCTT (site TAGAAGGCTAC) — lower, 0.0392
- TAGAAGGCTTGGGTTCTAACCTGTTGCTT (site TAGAAGGCTAG) — lower, 0.0656
- TAGAAGGCTTGGGTTCTAACCTGTTGCTT (site TAGAAGGCTAT) — lower, 0.28
- TAGAATCCTTGGGTTCTAACCTGTTGCAA (site TAGAATCCTAT) — lower, 0.15
- TAGAATCCTTGGGTTCTAACCTGTTGCAA (site TAGAATCCTCT) — lower, 0.123
- TAGAATCCTTGGGTTCTAACCTGTTGCAA (site TAGAATCCTGT) — lower, 0.116
- TAGAATCCTTGGGTTCTAACCTGTTGCAA (site TAGAATCCTTT) — lower, 0.147
- TAGACGGCTTGGGTTCTAACCTGTTGCAT (site GGATACACTCG) — lower, 0.191
- TAGACGGCTTGGGTTCTAACCTGTTGCAT (site TAGACGGCTAT) — lower, 0.463
- TAGAGAGCTTGGGTTCTAACCTGTTGCAG (site TAGAGAGCTCT) — higher, 1.94
- TAGAGAGCTTGGGTTCTAACCTGTTGCAG (site TAGGGAGCTAT) — lower, 0.265
- TAGAGCCCTTGGGTTCTAACCTGTTGCGG (site TCGAGGCCTCC) — lower, 0.0902
- TAGATCCCTTGGGTTCTAACCTGTTGCTT (site TAGAACCCTAA) — lower, 0.245
- TAGATCCCTTGGGTTCTAACCTGTTGCTT (site TAGATCCCTAA) — lower, 0.528
- TAGCACCCTTGGGTTCTAACCTGTTGCCG (site TAGCACCCTAG) — lower, 0.287
- TAGCACCCTTGGGTTCTAACCTGTTGCCG (site TAGCACCCTCG) — higher, 1.19
- TAGCACCCTTGGGTTCTAACCTGTTGCCG (site TAGCACCCTGG) — lower, 0.239
- TAGCACCCTTGGGTTCTAACCTGTTGCCG (site TAGCACCCTTG) — lower, 0.356
- TAGCAGTCTTGGGTTCTAACCTGTTGCGC (site CGCGCCACTAG) — lower, 0.251
- TAGCAGTCTTGGGTTCTAACCTGTTGCGC (site TAGCAGTCTGC) — higher, 2.05
